# Assay results as given in ChEMBL document CHEMBL1201862, “PubChem BioAssay data set” (2004).
# Active and inactive are the calls of the source.
# Assays:
# [1] = biological target: T1, DNA repair protein RAD52 homolog (Homo sapiens, UniProt P43351); format: functional, biochemical
# T1 sequence (P43351 whole entry): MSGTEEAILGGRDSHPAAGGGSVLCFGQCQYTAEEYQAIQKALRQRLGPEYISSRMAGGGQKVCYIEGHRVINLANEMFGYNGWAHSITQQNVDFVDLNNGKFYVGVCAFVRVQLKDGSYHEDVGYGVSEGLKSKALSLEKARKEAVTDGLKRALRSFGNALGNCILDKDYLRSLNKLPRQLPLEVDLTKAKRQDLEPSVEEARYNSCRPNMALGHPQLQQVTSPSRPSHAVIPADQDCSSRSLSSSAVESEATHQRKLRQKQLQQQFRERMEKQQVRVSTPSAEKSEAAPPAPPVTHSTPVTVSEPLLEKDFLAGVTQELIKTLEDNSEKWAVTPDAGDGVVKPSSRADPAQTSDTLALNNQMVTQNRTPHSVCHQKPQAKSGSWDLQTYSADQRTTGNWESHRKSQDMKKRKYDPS
# [2] = biological target: Melanocortin receptor 4 (Homo sapiens, UniProt P32245); format: functional, cell-based;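 note: Cell-based assay with luminescence read-out, confirmatory dose-response testing for agonist activity of biased ligands at MC4R; human U2OS cells with tagged receptor and beta-arrestin; potency of agonists that increase receptor coupling to beta-arrestin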
# [3] = biological target: Heat shock protein HSP 90-alpha (Homo sapiens, UniProt P07900); format: functional, organism-based
# [4] = biological target: T2, Carboxy-terminal domain RNA polymerase II polypeptide A small phosphatase 1 (Homo sapiens, UniProt Q9GZU7); assay: inhibitors of CTDSP1, concentration-response testing, biochemical assay, absorbance-based, actives from ultra-high-throughput screening (AID 540297); format: functional
# T2 sequence (Q9GZU7 whole entry): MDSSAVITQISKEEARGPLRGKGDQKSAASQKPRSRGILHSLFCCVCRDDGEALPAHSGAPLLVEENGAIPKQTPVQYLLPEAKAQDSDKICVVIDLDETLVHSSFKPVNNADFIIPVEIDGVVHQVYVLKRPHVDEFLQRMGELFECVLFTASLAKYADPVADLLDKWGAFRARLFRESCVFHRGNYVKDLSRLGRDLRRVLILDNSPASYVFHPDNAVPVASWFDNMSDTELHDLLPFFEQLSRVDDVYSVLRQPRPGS
# [5] = biological target: Dual specificity protein phosphatase 3 (Homo sapiens, UniProt P51452); assay: VHR phosphatase inhibition, dose response, selectivity assay for STEP inhibitor project, biochemical (AID 602374); format: functional; details: read-out: IC50_Mean
# [6] = biological target: Tyrosine-protein phosphatase non-receptor type 5 (Homo sapiens, UniProt P54829); assay: STEP phosphatase inhibitors, confirmation, biochemical, fluorescence intensity, uHTS hits (AID 602372); format: functional; details: read-out: IC50_Mean
# [7] = biological target: Eukaryotic translation initiation factor 4E (Mus musculus, UniProt P63073); assay: eIF4E–eIF4G protein interaction inhibitors, dose response, biochemical, TR-FRET (AID 855); format: functional;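 note: potency for disrupting eIF4E binding to eIF4GI seen as loss of FRET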
# [8] = biological target: Tyrosine-protein phosphatase non-receptor type 11 (Homo sapiens, UniProt Q06124); assay: SHP2 phosphatase inhibition, dose response, selectivity assay for STEP inhibitor project, biochemical (AID 602367); format: functional; details: read-out: IC50_Mean
# [9] = biological target: T3, Tyrosine-protein phosphatase non-receptor type 22 (Homo sapiens, UniProt Q9Y2R2); assay: PTPN22 phosphatase inhibition, dose response, selectivity assay for STEP inhibitor project, biochemical (AID 624241); format: functional
# T3 sequence (Q9Y2R2 whole entry): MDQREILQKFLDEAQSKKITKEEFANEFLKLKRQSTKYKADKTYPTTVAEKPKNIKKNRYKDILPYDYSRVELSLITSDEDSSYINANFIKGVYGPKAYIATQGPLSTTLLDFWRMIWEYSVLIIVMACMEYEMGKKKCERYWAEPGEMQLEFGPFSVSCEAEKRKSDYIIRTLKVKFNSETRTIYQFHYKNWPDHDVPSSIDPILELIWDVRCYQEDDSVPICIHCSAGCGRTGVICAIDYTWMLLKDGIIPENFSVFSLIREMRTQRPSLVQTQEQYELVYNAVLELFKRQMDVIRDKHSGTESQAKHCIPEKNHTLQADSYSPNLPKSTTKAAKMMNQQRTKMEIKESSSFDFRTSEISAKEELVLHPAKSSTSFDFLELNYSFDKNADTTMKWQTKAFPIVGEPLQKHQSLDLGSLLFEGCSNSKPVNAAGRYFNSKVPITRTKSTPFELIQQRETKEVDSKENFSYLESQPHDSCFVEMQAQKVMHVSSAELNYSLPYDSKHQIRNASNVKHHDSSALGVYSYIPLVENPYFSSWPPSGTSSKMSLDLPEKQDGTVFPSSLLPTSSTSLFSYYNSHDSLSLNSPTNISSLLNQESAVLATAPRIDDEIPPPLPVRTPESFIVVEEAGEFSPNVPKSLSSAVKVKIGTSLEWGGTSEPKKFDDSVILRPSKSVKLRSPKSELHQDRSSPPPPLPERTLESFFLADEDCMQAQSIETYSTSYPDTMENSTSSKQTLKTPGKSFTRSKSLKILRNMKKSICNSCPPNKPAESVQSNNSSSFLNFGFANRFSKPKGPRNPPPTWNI
# [10] = biological target: T4, Beta-lactamase (Pseudomonas aeruginosa, UniProt Q79MP6); assay: IMP-1 metallo-beta-lactamase inhibitors, dose response, selectivity assay for VIM-2 inhibitor project, biochemical, epi-absorbance (AID 1920)
# [11] = biological target: Beta-lactamase (Salmonella choleraesuis (strain SC-B67), UniProt Q5J463); assay: Epi-absorbance-based counterscreen for selective VIM-2 inhibitors: dose response biochemical high throughput screening assay to identify inhibitors of TEM-1 serine-beta-lactamase.
# [12] = biological target: T4, Beta-lactamase; assay: […] counterscreen for selective VIM-2 inhibitors: dose response biochemical high throughput screening assay to identify inhibitors of IMP-1 metallo-beta-lactamase.
# [13] = HEK293T cytotoxicity, dose response, cytotoxicity control for miR-122 modulator project, cell-based, activator set, cherry-pick (AID 720690); format: functional;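 note: HEK293T human cells scored for general mammalian cytotoxicity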
# [14] = miR-122 activators in hepatoma reporter cells, dose response, cell-based, Huh7 psiCHECK-miR122, Renilla luciferase, cherry-picked (AID 651956); format: functional;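 note: huh7 hepatoma cells stably carrying a psiCHECK-2 miR-122 sensor plasmid; renilla luciferase signal reporting endogenous miR-122 activity after 48 h compound exposure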
# [15] = biological target: ATP-binding cassette sub-family B member 6 (Homo sapiens, UniProt Q9NP58); assay: ABCB6 transporter inhibitors, dose response, K562-ABCB6 cells, flow cytometry, cherry pick 1 (AID 623955); format: functional; details: read-out: EC50_MICROM
# [16] = biological target: T5, Protein RecA (Mycobacterium tuberculosis, UniProt P9WHJ3); assay: Fluorescence Cell-Free Homogeneous Dose Retest to Identify Inhibitors of RecA-Intein Splicing Activity. [Related pubchem assays (depositor defined):AID2097, AID2223, AID489010, AID492950]; format: functional
# T5 sequence (P9WHJ3 whole entry): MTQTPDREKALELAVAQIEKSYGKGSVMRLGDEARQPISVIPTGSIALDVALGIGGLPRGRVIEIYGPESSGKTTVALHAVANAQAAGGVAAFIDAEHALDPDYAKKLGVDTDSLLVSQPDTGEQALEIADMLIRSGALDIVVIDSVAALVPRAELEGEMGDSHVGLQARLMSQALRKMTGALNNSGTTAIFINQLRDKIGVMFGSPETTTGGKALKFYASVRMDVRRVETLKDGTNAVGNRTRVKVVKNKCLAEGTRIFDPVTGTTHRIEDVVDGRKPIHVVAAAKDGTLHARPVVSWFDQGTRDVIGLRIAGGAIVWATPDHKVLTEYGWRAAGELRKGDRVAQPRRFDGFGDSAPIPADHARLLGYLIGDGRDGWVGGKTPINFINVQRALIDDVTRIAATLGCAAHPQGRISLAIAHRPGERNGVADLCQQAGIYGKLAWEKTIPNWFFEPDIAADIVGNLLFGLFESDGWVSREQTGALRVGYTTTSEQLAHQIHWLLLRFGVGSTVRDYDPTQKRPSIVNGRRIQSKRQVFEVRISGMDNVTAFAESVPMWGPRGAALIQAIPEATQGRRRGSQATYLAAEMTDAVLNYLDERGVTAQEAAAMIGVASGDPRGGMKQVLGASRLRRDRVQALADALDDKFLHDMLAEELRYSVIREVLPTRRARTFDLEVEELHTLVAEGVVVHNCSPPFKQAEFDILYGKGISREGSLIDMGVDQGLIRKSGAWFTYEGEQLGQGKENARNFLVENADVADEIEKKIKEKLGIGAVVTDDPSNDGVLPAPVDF
# [17] = HepG2 cell cytotoxicity, dose response, cytotoxicity control for Shn3 inhibitor project, CellTiter-Glo, cherry-picked (AID 624134); format: functional, cell-based
# [18] = control 3'UTR Renilla luciferase suppression, dose response, counter-screen for Shn3 inhibitor project, cell-based, Clone20-Shn3RL, cherry-picked (AID 624133); format: functional
# [19] = tested on: INS1; assay: beta cell apoptosis inhibitors, cytokine rescue, dose response, luminescence, retest (AID 449756); format: functional, cell-based; details: Rattus norvegicus;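 note: cell death triggered by IL-1 beta plus TNF-alpha plus IFN-gamma mixture; protective hits raise ATP signal compared with cytokine alone wells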
# [20] = Shn3 3'UTR reporter inhibitors, dose response, cell-based, Clone20 osteoblasts, firefly luciferase, cherry-picked (AID 624132); format: functional;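 note: firefly luciferase luminescence from reporter carrying the Shn3 3'UTR in osteoblasts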
# [21] = biological target: T6, Replicative DNA helicase DnaB (Mycobacterium tuberculosis, UniProt P9WMR3); assay: DnaB intein splicing inhibitors, dose response, biochemical, cell-free fluorescence (AID 449749); format: functional
# T6 sequence (P9WMR3 whole entry): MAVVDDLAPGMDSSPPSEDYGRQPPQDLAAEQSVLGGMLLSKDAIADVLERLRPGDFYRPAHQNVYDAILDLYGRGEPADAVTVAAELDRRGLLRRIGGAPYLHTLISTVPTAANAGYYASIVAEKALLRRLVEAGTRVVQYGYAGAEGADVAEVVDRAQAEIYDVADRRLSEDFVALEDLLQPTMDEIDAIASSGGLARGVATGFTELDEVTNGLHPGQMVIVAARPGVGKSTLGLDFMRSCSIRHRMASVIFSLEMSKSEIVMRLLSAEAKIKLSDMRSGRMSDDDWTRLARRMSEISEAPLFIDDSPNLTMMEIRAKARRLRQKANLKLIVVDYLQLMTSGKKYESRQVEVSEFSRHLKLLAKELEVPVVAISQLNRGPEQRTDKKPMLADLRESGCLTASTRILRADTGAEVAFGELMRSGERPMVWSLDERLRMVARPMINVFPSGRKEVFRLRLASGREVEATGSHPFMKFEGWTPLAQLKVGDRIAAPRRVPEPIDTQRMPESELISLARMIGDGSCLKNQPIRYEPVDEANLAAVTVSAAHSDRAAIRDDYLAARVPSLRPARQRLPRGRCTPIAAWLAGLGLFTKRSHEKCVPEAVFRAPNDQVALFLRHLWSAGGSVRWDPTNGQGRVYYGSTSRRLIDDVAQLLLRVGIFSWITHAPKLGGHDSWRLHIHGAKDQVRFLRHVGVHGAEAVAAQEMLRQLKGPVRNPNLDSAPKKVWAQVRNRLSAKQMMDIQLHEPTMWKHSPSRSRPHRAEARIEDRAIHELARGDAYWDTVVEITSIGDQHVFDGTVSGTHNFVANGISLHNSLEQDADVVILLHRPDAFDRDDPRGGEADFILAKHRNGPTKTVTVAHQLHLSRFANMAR
# T4 sequence (Q79MP6 whole entry): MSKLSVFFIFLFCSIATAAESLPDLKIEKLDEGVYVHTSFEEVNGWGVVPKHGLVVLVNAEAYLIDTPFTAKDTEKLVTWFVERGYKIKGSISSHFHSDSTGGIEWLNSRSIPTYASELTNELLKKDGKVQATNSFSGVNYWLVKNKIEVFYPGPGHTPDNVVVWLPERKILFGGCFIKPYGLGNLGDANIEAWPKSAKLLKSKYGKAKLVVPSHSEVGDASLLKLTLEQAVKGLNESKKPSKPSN
# ATP-binding cassette sub-family B member 6, sequence (Q9NP58 whole entry): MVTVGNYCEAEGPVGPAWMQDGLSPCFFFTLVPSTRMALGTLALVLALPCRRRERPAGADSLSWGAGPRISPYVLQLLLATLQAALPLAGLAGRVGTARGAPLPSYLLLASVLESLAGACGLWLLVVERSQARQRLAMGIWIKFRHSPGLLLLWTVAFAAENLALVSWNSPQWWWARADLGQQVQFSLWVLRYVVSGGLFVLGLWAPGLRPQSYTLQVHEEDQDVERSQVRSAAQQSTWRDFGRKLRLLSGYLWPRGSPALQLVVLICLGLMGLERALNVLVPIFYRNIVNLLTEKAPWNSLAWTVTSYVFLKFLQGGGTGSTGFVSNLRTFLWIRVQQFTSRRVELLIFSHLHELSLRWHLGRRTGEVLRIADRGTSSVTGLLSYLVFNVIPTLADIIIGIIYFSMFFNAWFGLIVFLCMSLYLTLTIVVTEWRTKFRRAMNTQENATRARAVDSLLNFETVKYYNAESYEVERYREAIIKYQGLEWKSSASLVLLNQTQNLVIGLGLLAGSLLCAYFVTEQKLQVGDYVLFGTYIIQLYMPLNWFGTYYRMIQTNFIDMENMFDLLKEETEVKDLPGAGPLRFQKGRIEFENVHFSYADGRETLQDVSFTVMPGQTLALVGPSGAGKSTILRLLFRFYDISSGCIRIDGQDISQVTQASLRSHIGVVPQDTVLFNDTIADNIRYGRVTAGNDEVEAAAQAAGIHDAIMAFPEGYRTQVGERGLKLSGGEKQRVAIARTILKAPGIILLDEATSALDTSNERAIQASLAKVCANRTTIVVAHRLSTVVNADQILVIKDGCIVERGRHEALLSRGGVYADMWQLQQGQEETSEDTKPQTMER
# Tyrosine-protein phosphatase non-receptor type 5, sequence (P54829 whole entry): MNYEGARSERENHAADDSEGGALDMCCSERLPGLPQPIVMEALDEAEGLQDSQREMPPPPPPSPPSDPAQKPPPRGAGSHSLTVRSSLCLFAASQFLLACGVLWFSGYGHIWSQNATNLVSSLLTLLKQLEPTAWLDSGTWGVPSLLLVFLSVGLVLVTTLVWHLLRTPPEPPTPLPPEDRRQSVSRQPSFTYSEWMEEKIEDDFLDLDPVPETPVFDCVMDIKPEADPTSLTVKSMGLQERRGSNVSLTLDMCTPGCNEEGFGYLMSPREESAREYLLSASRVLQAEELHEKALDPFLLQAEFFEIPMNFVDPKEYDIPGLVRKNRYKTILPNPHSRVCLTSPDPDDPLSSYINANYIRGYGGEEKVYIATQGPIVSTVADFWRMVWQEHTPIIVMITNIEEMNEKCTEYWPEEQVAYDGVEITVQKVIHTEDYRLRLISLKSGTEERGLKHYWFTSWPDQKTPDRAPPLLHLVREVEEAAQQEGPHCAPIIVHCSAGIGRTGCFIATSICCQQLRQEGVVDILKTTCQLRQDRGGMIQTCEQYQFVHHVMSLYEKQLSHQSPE
# Beta-lactamase (Salmonella choleraesuis (strain SC-B67), UniProt Q5J463), sequence (Q5J463 whole entry): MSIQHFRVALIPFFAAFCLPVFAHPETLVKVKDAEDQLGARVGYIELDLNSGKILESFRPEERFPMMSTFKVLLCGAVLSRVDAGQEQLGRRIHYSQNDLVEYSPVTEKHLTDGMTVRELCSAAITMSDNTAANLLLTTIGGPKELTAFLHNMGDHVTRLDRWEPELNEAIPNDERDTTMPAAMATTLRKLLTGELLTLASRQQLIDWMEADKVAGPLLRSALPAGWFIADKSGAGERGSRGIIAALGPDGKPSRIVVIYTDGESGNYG
# Tyrosine-protein phosphatase non-receptor type 11, sequence (Q06124 whole entry): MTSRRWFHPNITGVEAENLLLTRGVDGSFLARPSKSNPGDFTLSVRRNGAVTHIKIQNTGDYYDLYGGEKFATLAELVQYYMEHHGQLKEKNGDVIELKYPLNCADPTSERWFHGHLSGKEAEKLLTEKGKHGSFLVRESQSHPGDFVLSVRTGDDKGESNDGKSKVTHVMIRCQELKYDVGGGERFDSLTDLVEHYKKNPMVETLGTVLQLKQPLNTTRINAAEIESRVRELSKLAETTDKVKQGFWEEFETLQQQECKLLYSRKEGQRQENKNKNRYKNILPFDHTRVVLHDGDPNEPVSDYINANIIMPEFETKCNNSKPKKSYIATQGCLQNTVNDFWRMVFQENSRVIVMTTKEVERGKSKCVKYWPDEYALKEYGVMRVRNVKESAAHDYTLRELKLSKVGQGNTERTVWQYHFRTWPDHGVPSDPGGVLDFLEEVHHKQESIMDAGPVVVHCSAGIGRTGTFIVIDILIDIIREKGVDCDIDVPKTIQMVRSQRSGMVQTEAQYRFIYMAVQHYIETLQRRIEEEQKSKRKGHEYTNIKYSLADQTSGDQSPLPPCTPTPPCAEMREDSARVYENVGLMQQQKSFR
# Dual specificity protein phosphatase 3, sequence (P51452 whole entry): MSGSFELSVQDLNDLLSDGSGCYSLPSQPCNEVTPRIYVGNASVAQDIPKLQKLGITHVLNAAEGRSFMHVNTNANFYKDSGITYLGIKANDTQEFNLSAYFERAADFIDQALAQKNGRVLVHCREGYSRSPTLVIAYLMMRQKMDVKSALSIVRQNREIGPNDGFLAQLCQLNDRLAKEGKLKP
# Eukaryotic translation initiation factor 4E, sequence (P63073 whole entry): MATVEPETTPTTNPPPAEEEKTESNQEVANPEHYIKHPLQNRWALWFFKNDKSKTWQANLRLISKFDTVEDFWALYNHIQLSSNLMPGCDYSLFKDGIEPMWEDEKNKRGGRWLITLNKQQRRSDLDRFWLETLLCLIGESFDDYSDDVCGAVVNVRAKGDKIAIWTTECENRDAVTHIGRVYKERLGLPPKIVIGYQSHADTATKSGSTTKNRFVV
# Melanocortin receptor 4, sequence (P32245 whole entry): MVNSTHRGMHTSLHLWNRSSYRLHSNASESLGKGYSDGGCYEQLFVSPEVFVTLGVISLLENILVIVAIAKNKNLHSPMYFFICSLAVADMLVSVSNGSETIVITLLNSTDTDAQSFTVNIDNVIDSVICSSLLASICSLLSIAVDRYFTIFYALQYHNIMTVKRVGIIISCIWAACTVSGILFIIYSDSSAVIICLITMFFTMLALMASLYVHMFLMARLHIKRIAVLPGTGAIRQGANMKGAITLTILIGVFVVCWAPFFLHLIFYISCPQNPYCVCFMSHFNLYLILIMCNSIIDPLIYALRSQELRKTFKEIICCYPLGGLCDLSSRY
compound,measurement,setting,value
CCCCCCCCCCCCCCCC[n+]1cccc(C(=O)N(CC)CC)c1,AC50,[1],5.29 µM (active)
same,EC50,[2],> 89.2 µM (inactive)
same,AC50,[3],9.18 µM (active)
O=C(O)c1ccc2c(c1)C(=O)N(c1cccc(-c3nc4ccccc4s3)c1)C2=O,IC50,[4],7.07 µM (active)
same,IC50,[5],6.02 µM (active)
same,IC50,[6],8.03 µM (active)
same,IC50,[7],50 µM (inactive)
same,IC50,[8],6.24 µM (active)
same,IC50,[9],35.6 µM (inactive)
COc1ccc(-c2n[nH]c(=S)n2-c2ccc3c(c2)OCCO3)cc1OC,IC50,[10],> 59.6 µM (inactive)
same,IC50,[11],> 59.6 µM (inactive)
same,IC50,[12],> 59.6 µM (inactive)
C[C@H]1CCCCO[C@H](CN(C)Cc2ccc3c(c2)OCO3)[C@@H](C)CN([C@@H](C)CO)C(=O)c2cc(NC(=O)Nc3cccc4ccccc34)ccc2O1,AC50,[13],10 µM (active)
same,AC50,[14],10 µM (active)
Cc1cccc(NC(=O)c2nc(S(=O)(=O)Cc3ccccc3)ncc2Cl)c1,EC50,[15],21.5 µM (active)
same,EC50,[16],10.6 µM (active)
same,AC50,[17],17.5 µM (active)
same,AC50,[18],6.26 µM (active)
same,AC50,[19],10.3 µM (active)
same,AC50,[20],2.66 µM (active)
same,AC50,[21],21.9 µM (active)
same,AC50,[3],2.42 µM (active)
